In patent US20090221560A1, “Pharmaceutical Formulation” (priority 2005, published 2009):

Tests used:
5-HT-IC receptor = target: T1, 5-HT-IC receptor (Homo sapiens, UniProt P28335); experiment: Activity at the 5-HT-IC receptor; type: binding
T1 sequence (P28335 33-458): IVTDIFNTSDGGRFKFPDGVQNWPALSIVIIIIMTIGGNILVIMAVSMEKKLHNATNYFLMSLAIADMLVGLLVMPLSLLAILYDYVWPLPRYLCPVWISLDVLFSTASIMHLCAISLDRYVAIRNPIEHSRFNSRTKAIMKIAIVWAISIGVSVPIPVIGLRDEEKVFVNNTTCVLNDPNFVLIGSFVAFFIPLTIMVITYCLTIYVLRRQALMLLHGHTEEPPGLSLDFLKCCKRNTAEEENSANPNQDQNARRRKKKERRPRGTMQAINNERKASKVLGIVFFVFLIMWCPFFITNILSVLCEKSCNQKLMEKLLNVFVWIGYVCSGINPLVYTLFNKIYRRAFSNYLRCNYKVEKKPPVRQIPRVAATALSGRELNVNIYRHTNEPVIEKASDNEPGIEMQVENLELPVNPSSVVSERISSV
From the text: (§1) In addition, the compound of formula I and of formula II also show good activity in in vitro binding assays involving binding to neural receptors. […] The compounds are also active at the 5-HT-IC receptor.

rats [1] = experiment: Conditioned avoidance response in rats; type: in vivo; conditions: Rattus norvegicus, read-out: ED50, inhibition of conditioned avoidance response
5-HT-2 receptor = target: T2, 5-HT-2 receptor (Rattus norvegicus, UniProt P14842); experiment: Displacement of H-spiperone from binding sites in the rat frontal cortex
T2 construct: from tissue; host or cells: rat frontal cortex
From the text: as §1

rats [2] = experiment: Catalepsy induction in rats; type: in vivo; conditions: at the low dose inhibiting conditioned avoidance response
dopamine D-2 receptor = dopamine D-2 receptor (Homo sapiens, UniProt P14416); experiment: 3H-spiperone binding assay
From the text: as §1

dopamine D-2 receptor, sequence (P14416 whole entry): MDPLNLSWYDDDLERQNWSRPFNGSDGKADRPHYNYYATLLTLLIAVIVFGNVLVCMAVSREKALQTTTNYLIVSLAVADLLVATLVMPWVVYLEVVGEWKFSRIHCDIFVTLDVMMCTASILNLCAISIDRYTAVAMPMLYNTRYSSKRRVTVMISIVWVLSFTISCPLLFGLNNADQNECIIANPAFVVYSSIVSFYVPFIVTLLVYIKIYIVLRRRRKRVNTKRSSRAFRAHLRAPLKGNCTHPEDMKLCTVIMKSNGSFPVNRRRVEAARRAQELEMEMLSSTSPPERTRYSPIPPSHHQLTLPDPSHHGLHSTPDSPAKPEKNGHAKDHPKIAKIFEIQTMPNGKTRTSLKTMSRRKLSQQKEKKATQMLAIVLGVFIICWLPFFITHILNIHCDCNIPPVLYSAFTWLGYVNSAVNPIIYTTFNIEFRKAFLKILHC
T2 sequence (P14842 whole entry): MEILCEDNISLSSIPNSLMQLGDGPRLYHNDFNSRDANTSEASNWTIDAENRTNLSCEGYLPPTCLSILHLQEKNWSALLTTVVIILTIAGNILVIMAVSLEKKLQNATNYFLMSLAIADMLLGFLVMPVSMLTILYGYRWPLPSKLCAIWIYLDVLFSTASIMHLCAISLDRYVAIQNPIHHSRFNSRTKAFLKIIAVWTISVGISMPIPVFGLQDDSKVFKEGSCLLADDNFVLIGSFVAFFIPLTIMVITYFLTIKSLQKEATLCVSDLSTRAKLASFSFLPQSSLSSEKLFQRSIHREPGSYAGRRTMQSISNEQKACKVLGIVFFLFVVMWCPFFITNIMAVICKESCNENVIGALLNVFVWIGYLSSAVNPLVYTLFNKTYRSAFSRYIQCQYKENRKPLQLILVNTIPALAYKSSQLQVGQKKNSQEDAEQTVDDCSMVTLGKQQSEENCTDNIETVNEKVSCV

| Activity at the 5-HT-IC receptor (5-HT-IC receptor) | Concentration displacing H-spiperone at the 5-HT-2 receptor (5-HT-2 receptor) | IC50 (dopamine D-2 receptor) [nM] | SMILES | ED50 (rats [1]) [mg/kg] | Catalepsy (rats [2]) |
| --- | --- | --- | --- | --- | --- |
| active | low nanomolar concentrations | < 1000 | Cc1cc2c(s1)Nc1ccccc1N=C2N1CC[N+](C)(CCl)CC1 [formula I, 2-methyl-4-(4-methyl-4-chloromethyl-1-piperazinyl)-10H-thieno-[2,3-b][1,5]-benzodiazepine] | ~5 | without inducing catalepsy |
| active | low nanomolar concentrations | < 1000 | CC(=O)N1CCN(C2=Nc3ccccc3Nc3sc(C)cc32)CC1 [formula II, 2-methyl-4-(4-acetyl-1-piperazinyl)-10H-thieno-[2,3-b][1,5]-benzodiazepine] | ~5 | without inducing catalepsy |
